In brackets after ≈: the same amount, converted by molar mass. Where two headings read alike, the source gives them in different places.

Broadly, the MIC is the lowest concentration that inhibits growth of the organism.

Common to all, as to assay type: cell-based
The test system of data set [1] is Staphylococcus aureus NRS384 (MRSA USA300). As to the kind of experiment: Initial MIC screening, broth microdilution (CLSI). The note with it: for MIC: Staphylococcus aureus NRS384 (MRSA USA300), broth microdilution, visual reading. A digest of the protocol:
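MRSA USA300 grown 24 h at 37 °C on tryptic soy agar, then adjusted to 5×10^5 CFU/ml in cation-adjusted Mueller-Hinton broth. Compounds serially diluted 64 to 0.5 μg/mL per CLSI broth microdilution; MIC recorded.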

Data set [2] has as its system Enterococcus faecalis ATCC 51299 (VRE). Put plainly: MIC, Gram-positive panel. As to conditions: Enterococcus faecalis ATCC 51299 (VRE); read-out: MIC. As for the experimental part:
(§1) Next, the spectrum of antibacterial activity of compounds 144, 148, 149, 151, 155, 158, and 187 was examined against a panel of clinically relevant Gram-positive bacterial pathogens including methicillin-resistant Staphylococcus aureus (MRSA), vancomycin-resistant Staphylococcus aureus (VRSA), vancomycin-resistant Enterococcus faecalis and Enterococcus faecium (VRE), and Streptococcus pneumoniae. Bacterial strains were grown aerobically overnight on tryptone soya agar plates at 37° C. Afterwards, a bacterial solution equivalent to 0.5 McFarland standard was prepared and diluted in cation-adjusted Mueller-Hinton broth (CAMHB) (for staphylococci). Enterococci and Streptococci were diluted in tryptone soya broth (TSB) to achieve a bacterial concentration of about 5×10^5 CFU/mL and seeded in 96-well plates. Compounds and control drugs were added in the first row of 96-well plates and serially diluted with media containing bacteria. Plates were then, incubated aerobically at 37° C. for 18-20 hours (except for S. pneumoniae, which was incubated at 37° C. in presence of 5% CO2 for 18-20 hours).

The test system of data set [3] is Enterococcus faecium ATCC 700221 (VRE). Put plainly: MIC, Gram-positive panel. The note with it: Enterococcus faecium ATCC 700221 (VRE); read-out: MIC. As for the experimental part:
as §1

The next data set has as its system MRSA NRS 119. Put plainly: MIC, Gram-positive panel. As to conditions: Staphylococcus aureus; MRSA NRS 119; read-out: MIC. On the procedure:
as §1

In a further data set the test system is MRSA NRS 123. Put plainly: MIC, Gram-positive panel. As to conditions: Staphylococcus aureus; MRSA NRS 123; read-out: MIC. As for the experimental part: as §1
A further data set has as its system MRSA NRS 385. As to the kind of experiment: MIC, Gram-positive panel. The note with it: Staphylococcus aureus; MRSA NRS 385; read-out: MIC. As for the experimental part: as §1
The subject of a further data set is MRSA NRS 386. As to the kind of experiment: MIC, Gram-positive panel. As to conditions: Staphylococcus aureus; MRSA NRS 386; read-out: MIC. On the procedure:
as §1

Data set [4] relates to Methicillin-resistant S. epidermidis NRS101. As to the kind of experiment: MIC, Gram-positive panel. As to conditions: Staphylococcus epidermidis; Methicillin-resistant S. epidermidis NRS101; read-out: MIC. As for the experimental part:
as §1

Data set [5] deals with Methicillin-resistant S. pneumoniae ATCC 700677. As to the kind of experiment: MIC, Gram-positive panel. As to conditions: Streptococcus pneumoniae, ATCC700677; Methicillin-resistant S. pneumoniae ATCC 700677; read-out: MIC. On the procedure: as §1
The subject of the next data set is S. aureus ATCC 6538. Put plainly: MIC, Gram-positive panel. As to conditions: Staphylococcus aureus, ATCC6538; S. aureus ATCC 6538; read-out: MIC. As for the experimental part: as §1
The next data set relates to S. aureus NRS 107. As to the kind of experiment: MIC, Gram-positive panel. The note with it: Staphylococcus aureus, NRS107; S. aureus NRS 107; read-out: MIC. On the procedure:
as §1

The next data set relates to S. pneumoniae ATCC 51916. Put plainly: MIC, Gram-positive panel. As to conditions: Streptococcus pneumoniae, ATCC51916; S. pneumoniae ATCC 51916; read-out: MIC. As for the experimental part:
as §1

In another data set the test system is VRSA 10. Put plainly: MIC, Gram-positive panel. The note with it: Staphylococcus aureus; VRSA 10; read-out: MIC. As for the experimental part: as §1
Another data set has as its system VRSA 12. As to the kind of experiment: MIC, Gram-positive panel. The note with it: Staphylococcus aureus; VRSA 12; read-out: MIC. As for the experimental part:
as §1

Data set [6] has as its system human keratinocytes cell line (HaCaT cells). As to the kind of experiment: In vitro cytotoxicity, MTS assay. As to conditions: 2 h. On the procedure: Compounds 144, 148, 149, 151, 155, and 158 were assayed (at concentrations of 16, 32, and 64 μg/mL) against a human keratinocytes cell line (HaCaT cells) to determine their in vitro potential toxic effect. Briefly, cells were cultured in Dulbecco's Modified Eagle Medium (DMEM) supplemented with 10% fetal bovine serum (FBS) and penicillin-streptomycin at 37° C. in presence of 5% CO2. Compounds were added in the first row of the 96-well plate. Control cells received DMSO alone at a concentration equivalent to that in drug-treated wells. The cells were incubated with the compounds (in triplicate) in a 96-well plate at 37° C. in presence of 5% CO2 for two hours. The assay reagent MTS 3-(4,5-dimethylthiazol-2-yl)-5-(3-carboxymethoxyphenyl)-2-(4-sulfophenyl)-2H-tetrazolium) (Promega, Madison, Wis., USA) was subsequently added and the plate was incubated for three to four hours. Absorbance readings (at OD490) were recorded using a kinetic microplate reader (Molecular Devices, Sunnyvale, Calif., USA). The quantity of viable cells after treatment with each compound was expressed as a percentage of the viability to DMSO-treated control cells (average of triplicate wells±standard deviation).
FIG. 2. Analyzing the toxicity of compounds 144, 148, 149, 151, 155 and 158 (tested in triplicates at 16, 32 and 64 μg/mL) against human keratinocytes cells (HaCaT) using the MTS 3-(4,5-dimethylthiazol-2-yl)-5-(3-carboxymethoxyphenyl)-2-(4-sulfophenyl)-2H-tetrazolium) assay. Results are presented as percent viable cells relative to DMSO (negative control to determine a baseline measurement for the cytotoxic impact of each compound). The absorbance values represent an average of three samples analyzed for each compound. Error bars represent standard deviation values. The data were analyzed via a two-way ANOVA with post-hoc Dunnett's test for multiple comparisons. An asterisk (*) denotes statistical significance (P<0.05) between results for compounds and DMSO.
(In general: Tetrazolium dyes change colour on reduction, which living cells bring about.)

Setting [7] is: Staphylococcus aureus, read-out: MIC.

`C=C(C(=O)OC)C(c1cccc2ccccc12)C(O)c1ccccc1` (stereo not drawn) [Compound 144]: in data set [1] (MRSA USA300, Table 1 assay), the “potency compared with control antibiotic” value was “potency similar to the oxazolidinone class of antimicrobial drug linezolid”. Also, the MIC was 1 µg/mL (≈ 3.01 µM) in [1]; 1 to 2 µg/mL (≈ 3.01 to 6.02 µM) in [1] (setting [7]); > 64 µg/mL in [2]; 64 µg/mL (≈ 193 µM) in [3]; 1 µg/mL (≈ 3.01 µM) with MRSA NRS 119; 1 µg/mL (≈ 3.01 µM) with MRSA NRS 123. Moreover, the MIC (in the data set on MRSA NRS 385; in the data set on MRSA NRS 386; in data set [4]; in data set [5]; in the data set with S. aureus ATCC 6538; with S. aureus NRS 107) was 1 µg/mL (≈ 3.01 µM) throughout. Moreover, the minimal inhibitory concentration (MIC) in the data set on S. pneumoniae ATCC 51916, in the data set with VRSA 10 and in the data set on VRSA 12 was 1 µg/mL (≈ 3.01 µM) throughout. Further, the “tolerable concentration as multiple of MIC against MRSA” value in data set [6] is recorded as 16 to 32 times.
Consider `C=C1C(=O)O[C@H](C2=CC=CCC2)[C@H]1c1cccc2ccccc12` [Compound 187], for which the MIC was 1 µg/mL (≈ 3.31 µM) in data set [1]; 1 to 2 µg/mL (≈ 3.31 to 6.61 µM) in [1] (setting [7]); > 64 µg/mL in [2]; > 64 µg/mL in data set [3]; 2 µg/mL (≈ 6.61 µM) in the data set on MRSA NRS 119; 2 µg/mL (≈ 6.61 µM) with MRSA NRS 123. Further, the MIC with MRSA NRS 385 was 1 µg/mL (≈ 3.31 µM); with MRSA NRS 386 it was 1 µg/mL (≈ 3.31 µM); in [4] it was 0.5 µg/mL (≈ 1.65 µM); in data set [5], 1 µg/mL (≈ 3.31 µM); in the data set with S. aureus ATCC 6538 it was 1 µg/mL (≈ 3.31 µM); in the data set with S. aureus NRS 107, 1 µg/mL (≈ 3.31 µM). Further, the minimum inhibitory concentration (MIC) was found to be 1 µg/mL (≈ 3.31 µM) in the data set on S. pneumoniae ATCC 51916, 1 µg/mL (≈ 3.31 µM) in the data set with VRSA 10 and 2 µg/mL (≈ 6.61 µM) in the data set with VRSA 12. For the same compound, in data set [6], the “tolerable concentration as multiple of MIC against MRSA” value was in the range of 16 to 32 times.
